Experimental data reported in ChEMBL document CHEMBL4765454, “Betulinic acid derived amides are highly cytotoxic, apoptotic and selective” (Eur J Med Chem, 2020).

Tests used:
MCF7 = test: Cytotoxicity against human MCF7 cells assessed as reduction in cell viability incubated for 72 hrs by SRB assay; format: functional, cell-based
FaDu = test: Cytotoxicity against human FaDu cells assessed as reduction in cell viability incubated for 72 hrs by SRB assay; format: functional, cell-based
A2780 = test: Cytotoxicity against human A2780 cells assessed as reduction in cell viability incubated for 72 hrs by SRB assay; format: functional, cell-based
HT-29 = test: Cytotoxicity against human HT-29 cells assessed as reduction in cell viability incubated for 72 hrs by SRB assay; format: functional, cell-based
A-375 = test: Cytotoxicity against human A-375 cells assessed as reduction in cell viability incubated for 72 hrs by SRB assay; format: functional, cell-based
NIH3T3 = test: Cytotoxicity against mouse NIH3T3 cells assessed as reduction in cell viability incubated for 72 hrs by SRB assay; format: cell-based
[1] = Selectivity ratio of EC50 for mouse NIH3T3 cells to EC50 for human FaDu cells
[2] = Selectivity ratio of EC50 for mouse NIH3T3 cells to EC50 for human A375 cells; format: toxicity; conditions: NIH3T3 cells versus A375 cells, read-out: Ratio EC50
[3] = Selectivity ratio of EC50 for mouse NIH3T3 cells to EC50 for human HT-29 cells; format: toxicity; conditions: NIH3T3 cells versus HT-29 cells, read-out: Ratio EC50
[4] = Selectivity ratio of EC50 for mouse NIH3T3 cells to EC50 for human MCF7 cells; format: toxicity; conditions: NIH3T3 cells versus MCF7 cells, read-out: Ratio EC50
[5] = Selectivity ratio of EC50 for mouse NIH3T3 cells to EC50 for human A2780 cells; format: toxicity; conditions: NIH3T3 cells versus A2780 cells, read-out: Ratio EC50
[6] = Homo sapiens, MCF7, 72 h, read-out: EC50
[7] = Homo sapiens, FaDu, 72 h, read-out: EC50
[8] = Homo sapiens, A2780, 72 h, read-out: EC50
[9] = Homo sapiens, HT-29, 72 h, read-out: EC50
[10] = Homo sapiens, A-375, 72 h, read-out: EC50
[11] = Mus musculus, NIH3T3, 72 h, read-out: EC50

Row | Compound | EC50 (MCF7; mcf7) | EC50 (FaDu; fadu) | EC50 (A2780; a2780) | EC50 (HT-29; ht-29) | EC50 (A-375; a-375) | EC50 (NIH3T3; nih3t3) | EC50 (MCF7; [6]) | Ratio EC50 [1] | selectivity ratio [2] | selectivity ratio [3] | EC50 (FaDu; [7]) | EC50 (A2780; [8]) | EC50 (HT-29; [9]) | EC50 (A-375; [10]) | selectivity ratio [4] | selectivity ratio [5] | EC50 (NIH3T3; [11])
1 | CC(=O)O[C@H]1C[C@]2(C)[C@H]3CC[C@@H]4[C@H]5[C@H](C(C)=O)CC[C@]5(C(=O)Nc5cccc6ncccc56)CC[C@@]4(C)[C@]3(C)CC[C@H]2C(C)(C)[C@H]1OC(C)=O | Nd(Insoluble) | Nd(Insoluble) | Nd(Insoluble) | Nd(Insoluble) | Nd(Insoluble) | Nd(Insoluble) |  |  |  |  |  |  |  |  |  |  | 
2 | C=C(C)[C@@H]1CC[C@]2(C(=O)O)CC[C@]3(C)[C@H](CC[C@@H]4[C@@]5(C)C=C(O)C(=O)C(C)(C)[C@@H]5CC[C@]43C)[C@@H]12 |  |  |  |  |  |  | 12 µM | 0.9 | 0.9 | 0.5 | 14.1 µM | 10.5 µM | 26.1 µM | 13.8 µM | 1.1 | 1.2 | 12.8 µM
3 | CC(=O)[C@@H]1CC[C@]2(C(=O)O)CC[C@]3(C)[C@H](CC[C@@H]4[C@@]5(C)C[C@H](O)[C@H](O)C(C)(C)[C@@H]5CC[C@]43C)[C@@H]12 |  |  |  |  |  |  | > 30 µM |  |  |  | > 30 µM | > 30 µM | > 30 µM | > 30 µM |  |  | > 30 µM
4 | CC(=O)O[C@H]1C[C@]2(C)[C@H]3CC[C@@H]4[C@H]5[C@H](C(C)=O)CC[C@]5(C(=O)NCc5ccccc5)CC[C@@]4(C)[C@]3(C)CC[C@H]2C(C)(C)[C@H]1OC(C)=O |  |  |  |  |  |  | 5.2 µM | 5.4 |  | 4.2 | 5.57 µM | 2.36 µM | 7.22 µM | 2.9 µM | 5.8 | 12.7 | > 30 µM
5 | C=C(C)[C@@H]1CC[C@]2(C(=O)O)CC[C@]3(C)[C@H](CC[C@@H]4[C@@]5(C)CC[C@H](O)C(C)(C)[C@@H]5CC[C@]43C)[C@@H]12 [BETULINIC ACID] |  |  |  |  |  |  | > 30 µM |  |  |  | > 30 µM | > 30 µM | > 30 µM | > 30 µM |  |  | > 30 µM
6 | C=C(C)[C@@H]1CC[C@]2(C(=O)NCc3ccccc3)CC[C@]3(C)[C@H](CC[C@@H]4[C@@]5(C)CC[C@H](OC(C)=O)C(C)(C)[C@@H]5CC[C@]43C)[C@@H]12 |  |  |  |  |  |  | 26.8 µM | 3.1 |  | 1 | 9.59 µM | 6.29 µM | > 30 µM | 4.05 µM | 1.1 | 4.8 | > 30 µM
7 | CC(=O)[C@@H]1CC[C@]2(C(=O)O)CC[C@]3(C)[C@H](CC[C@@H]4[C@@]5(C)CC[C@H](O)C(C)(C)[C@@H]5CC[C@]43C)[C@@H]12 [PLATANIC ACID] |  |  |  |  |  |  | > 30 µM |  |  |  | > 30 µM | > 30 µM | > 30 µM | > 30 µM |  |  | > 30 µM
8 | C=C(C)[C@@H]1CC[C@]2(C(=O)Nc3cncc4ccccc34)CC[C@]3(C)[C@H](CC[C@@H]4[C@@]5(C)C[C@H](OC(C)=O)[C@H](OC(C)=O)C(C)(C)[C@@H]5CC[C@]43C)[C@@H]12 |  |  |  |  |  |  | 7.33 µM | 7.5 |  | 2 | 4.02 µM | 4.76 µM | > 15 µM | 3.34 µM | 4.1 | 6.3 | > 30 µM
9 | CC(=O)O[C@H]1CC[C@]2(C)[C@H]3CC[C@@H]4[C@H]5[C@H](C(C)=O)CC[C@]5(C(=O)Nc5cccc6ncccc56)CC[C@@]4(C)[C@]3(C)CC[C@H]2C1(C)C |  |  |  |  |  |  | 7.06 µM | 4.7 |  | 1 | 6.42 µM | 5.4 µM | > 30 µM | 4.6 µM | 4.3 | 5.6 | > 30 µM
10 | CC(=O)O[C@H]1C[C@]2(C)[C@H]3CC[C@@H]4[C@H]5[C@H](C(C)=O)CC[C@]5(C(=O)O)CC[C@@]4(C)[C@]3(C)CC[C@H]2C(C)(C)[C@H]1OC(C)=O |  |  |  |  |  |  | > 30 µM | 0.3 | 0.4 | 0.3 | > 30 µM | > 30 µM | > 30 µM | 22.5 µM | 0.3 | 0.3 | 9.57 µM
11 | C=C(C)[C@@H]1CC[C@]2(C(=O)O)CC[C@]3(C)[C@H](CC[C@@H]4[C@@]5(C)C[C@H](O)[C@H](O)C(C)(C)[C@@H]5CC[C@]43C)[C@@H]12 |  |  |  |  |  |  | 15.8 µM | 1 | 1.5 | 1 | 16.5 µM | 12.3 µM | 17.7 µM | 11.2 µM | 1.1 | 1.4 | 17.3 µM
12 | CC(=O)[C@@H]1CC[C@]2(C(=O)O)CC[C@]3(C)[C@H](CC[C@@H]4[C@@]5(C)CCC(=O)C(C)(C)[C@@H]5CC[C@]43C)[C@@H]12 |  |  |  |  |  |  | > 30 µM |  |  |  | > 30 µM | > 30 µM | > 30 µM | > 30 µM |  |  | > 30 µM
13 | C=C(C)[C@@H]1CC[C@]2(C(=O)O)CC[C@]3(C)[C@H](CC[C@@H]4[C@@]5(C)CC[C@H](OC(C)=O)C(C)(C)[C@@H]5CC[C@]43C)[C@@H]12 |  |  |  |  |  |  |  | 4.2 | 1.6 | 1.4 | 7.2 µM |  | 21.3 µM | 19.2 µM | 2.7 | 1.6 | > 30 µM
14 | C=C(C)[C@@H]1CC[C@]2(C(=O)O)CC[C@]3(C)[C@H](CC[C@@H]4[C@@]5(C)CCC(=O)C(C)(C)[C@@H]5CC[C@]43C)[C@@H]12 [BETUNOLIC ACID] |  |  |  |  |  |  | 12 µM |  |  |  | 17.4 µM | 4.7 µM | 18.5 µM | 14.3 µM |  |  | 19.4 µM
15 | CC(=O)O[C@H]1CC[C@]2(C)[C@H]3CC[C@@H]4[C@H]5[C@H](C(C)=O)CC[C@]5(C(=O)O)CC[C@@]4(C)[C@]3(C)CC[C@H]2C1(C)C |  |  |  |  |  |  | > 30 µM |  |  |  | > 30 µM | > 30 µM | > 30 µM | > 30 µM |  |  | > 30 µM
16 | CC(=O)[C@@H]1CC[C@]2(C(=O)O)CC[C@]3(C)[C@H](CC[C@@H]4[C@@]5(C)C=C(O)C(=O)C(C)(C)[C@@H]5CC[C@]43C)[C@@H]12 |  |  |  |  |  |  | 24.8 µM |  |  |  | > 30 µM | 20.6 µM | > 30 µM | > 30 µM |  |  | > 30 µM
17 | CC(=O)O[C@H]1CC[C@]2(C)[C@H]3CC[C@@H]4[C@H]5[C@H](C(C)=O)CC[C@]5(C(=O)NCc5ccccc5)CC[C@@]4(C)[C@]3(C)CC[C@H]2C1(C)C | Nd(Insoluble) | Nd(Insoluble) | Nd(Insoluble) | Nd(Insoluble) | Nd(Insoluble) | Nd(Insoluble) |  |  |  |  |  |  |  |  |  |  | 
18 | C=C(C)[C@@H]1CC[C@]2(C(=O)Nc3cccc4ncccc34)CC[C@]3(C)[C@H](CC[C@@H]4[C@@]5(C)CC[C@H](OC(C)=O)C(C)(C)[C@@H]5CC[C@]43C)[C@@H]12 |  |  |  |  |  |  | 12.1 µM | 5.8 |  | 1 | 5.18 µM | 5.08 µM | > 30 µM | 3.05 µM | 2.5 | 5.9 | > 30 µM
19 | COc1cccc2c1C(=O)c1c(O)c3c(c(O)c1C2=O)C[C@@](O)(C(=O)CO)C[C@@H]3O[C@H]1C[C@H](N)[C@H](O)[C@H](C)O1 [DOXORUBICIN] |  |  |  |  |  |  |  |  |  |  |  |  | > 30 µM |  |  |  | 1.3 µM
20 | CC(=O)O[C@H]1C[C@]2(C)[C@H]3CC[C@@H]4[C@H]5[C@H](C(C)=O)CC[C@]5(C(=O)Nc5cncc6ccccc56)CC[C@@]4(C)[C@]3(C)CC[C@H]2C(C)(C)[C@H]1OC(C)=O |  |  |  |  |  |  | 6.96 µM | 4.7 |  | 1.6 | 6.41 µM | 6.15 µM | 18.4 µM | 4.88 µM | 4.3 | 4.9 | > 30 µM
21 | CC(=O)O[C@H]1CC[C@]2(C)[C@H]3CC[C@@H]4[C@H]5[C@H](C(C)=O)CC[C@]5(C(=O)Nc5cncc6ccccc56)CC[C@@]4(C)[C@]3(C)CC[C@H]2C1(C)C |  |  |  |  |  |  | 9.34 µM | 3.9 |  | 1 | 7.67 µM | 7.84 µM | > 30 µM | 5.66 µM | 3.2 | 3.8 | > 30 µM
